Reference: PMC5063900, “A phase 1 study of the safety, tolerability, pharmacokinetics, and pharmacodynamics of TAK-063, a selective PDE10A inhibitor” (Psychopharmacology, 2016)

Assay: Treatment-emergent adverse events, phase 1 single-rising-dose study in healthy subjects
Assay type: in vivo, human
Protocol: Healthy Japanese and non-Japanese subjects between 18 and 55 years of age were recruited to participate in the study. Criteria for exclusion included prior treatment with any investigational compound within 30 days of the first TAK-063 dose, a positive test for drugs of abuse or nicotine, and an increased risk for suicide. […] Following a washout period of 7 days, subjects in cohort 3 (100 mg) received the same dose (100 mg) but under fed conditions.
The study assessed safety and tolerability in all subjects for the 4-day study duration. The primary endpoints were the percentage of subjects who experienced at least one treatment-emergent adverse event (TEAE), as well as the percentage of subjects who met predefined criteria for safety laboratory tests, vital sign measurements, and safety parameters following TAK-063 administration. The secondary endpoints were PK parameters for TAK-063 and M-I, assessing drug exposure at each dose, and the effect of food coadministration on TAK-063 PK. Exploratory endpoints included the effects of TAK-063 on domains of cognition as assessed by a computerized battery, CNS Vital Signs (CNSVS).
Adverse events, clinical laboratory tests, vital signs, 12-lead electrocardiograms (ECGs), and Columbia-Suicide Severity Rating Scale (C-SSRS) were all monitored. Intensity of AEs was classified as mild, moderate, or severe, and each AE was classified as to its relation to study drug.
Laboratory tests evaluated hematology, serum chemistry, urine, and hormone levels. Vital signs and ECGs were collected at screening, check-in, within 1 h predose, serially postdose, and at study exit, while the C-SSRS was administered at screening, check-in, and study exit. Any events reported on the C-SSRS and clinically significant laboratory abnormalities were reported as AEs.

[1] = Japanese subjects, TAK-063 Total (n = 30)
[2] = Japanese subjects, single 3 mg dose (n = 5)
[3] = Japanese subjects, single 10 mg dose (n = 5)
[4] = Japanese subjects, single 30 mg dose (n = 5)
[5] = Japanese subjects, single 100 mg dose (n = 5)
[6] = Japanese subjects, single 300 mg dose (n = 5)
[7] = Japanese subjects, single 1000 mg dose (n = 5)
[8] = all TAK-063-treated subjects, all cohorts
[9] = all subjects, TAK-063 Total (n = 66)
[10] = all subjects, single 3 mg dose (n = 11)
[11] = all subjects, single 10 mg dose (n = 11)
[12] = all subjects, single 30 mg dose (n = 11)

## COc1cn(-c2ccc(-n3cccn3)cc2F)nc(-c2ccnn2-c2ccccc2)c1=O [TAK-063]
300 mg
  Severe AE: orthostatic hypotension, number of subjects: 1
1000 mg
  Severe AE: somnolence, number of subjects: 2
55/63 AEs
  AEs of mild intensity: 87.3%
Japanese subjects treated with TAK-063
  Total incidence of TEAEs: 43.3%
[1]
  Adverse event: Dizziness: 1 (3.3) n (%)
  Adverse event: Epistaxis: 1 (3.3) n (%)
  Adverse event: Headache: 1 (3.3) n (%)
  Adverse event: Muscle tightness: 1 (3.3) n (%)
  Adverse event: Nausea: 1 (3.3) n (%)
  Adverse event: Orthostatic hypotension: 4 (13.3) n (%)
  Adverse event: Orthostatic tachycardia: 5 (16.7) n (%)
  Adverse event: Somnolence: 10 (33.3) n (%)
  Adverse event: Vomiting: 2 (6.7) n (%)
[2]
  Adverse event: Dizziness: 0 n (%)
  Adverse event: Epistaxis: 0 n (%)
  Adverse event: Headache: 0 n (%)
  Adverse event: Muscle tightness: 0 n (%)
  Adverse event: Nausea: 0 n (%)
  Adverse event: Orthostatic hypotension: 0 n (%)
  Adverse event: Orthostatic tachycardia: 0 n (%)
  Adverse event: Somnolence: 0 n (%)
  Adverse event: Vomiting: 0 n (%)
[3]
  Adverse event: Dizziness: 0 n (%)
  Adverse event: Epistaxis: 0 n (%)
  Adverse event: Headache: 0 n (%)
  Adverse event: Muscle tightness: 0 n (%)
  Adverse event: Nausea: 0 n (%)
  Adverse event: Orthostatic hypotension: 0 n (%)
  Adverse event: Orthostatic tachycardia: 0 n (%)
  Adverse event: Somnolence: 0 n (%)
  Adverse event: Vomiting: 0 n (%)
[4]
  Adverse event: Dizziness: 0 n (%)
  Adverse event: Epistaxis: 1 (20.0) n (%)
  Adverse event: Headache: 0 n (%)
  Adverse event: Muscle tightness: 1 (20.0) n (%)
  Adverse event: Nausea: 0 n (%)
  Adverse event: Orthostatic hypotension: 0 n (%)
  Adverse event: Orthostatic tachycardia: 1 (20.0) n (%)
  Adverse event: Somnolence: 1 (20.0) n (%)
  Adverse event: Vomiting: 0 n (%)
[5]
  Adverse event: Dizziness: 0 n (%)
  Adverse event: Epistaxis: 0 n (%)
  Adverse event: Headache: 1 (20.0) n (%)
  Adverse event: Muscle tightness: 0 n (%)
  Adverse event: Nausea: 0 n (%)
  Adverse event: Orthostatic hypotension: 1 (20.0) n (%)
  Adverse event: Orthostatic tachycardia: 0 n (%)
  Adverse event: Somnolence: 4 (80.0) n (%)
  Adverse event: Vomiting: 1(20.0) n (%)
[6]
  Adverse event: Dizziness: 0 n (%)
  Adverse event: Epistaxis: 0 n (%)
  Adverse event: Headache: 0 n (%)
  Adverse event: Muscle tightness: 0 n (%)
  Adverse event: Nausea: 0 n (%)
  Adverse event: Orthostatic hypotension: 1 (20.0) n (%)
  Adverse event: Orthostatic tachycardia: 1 (20.0) n (%)
  Adverse event: Somnolence: 2 (40.0) n (%)
  Adverse event: Vomiting: 0 n (%)
[7]
  Adverse event: Dizziness: 1 (20.0) n (%)
  Adverse event: Epistaxis: 0 n (%)
  Adverse event: Headache: 0 n (%)
  Adverse event: Muscle tightness: 0 n (%)
  Adverse event: Nausea: 1 (20.0) n (%)
  Adverse event: Orthostatic hypotension: 2 (40.0) n (%)
  Adverse event: Orthostatic tachycardia: 3 (60.0) n (%)
  Adverse event: Somnolence: 3 (60.0) n (%)
  Adverse event: Vomiting: 1 (20.0) n (%)
Across all cohorts
  Subjects experiencing drug-related AEs: 32 of 66
  Total number of drug-related AEs: 57
[8]
  Drug-related AE: orthostatic hypotension, incidence: 10.6%
  Drug-related AE: orthostatic tachycardia, incidence: 19.7%
  Drug-related AE: somnolence, incidence: 33.3%
[9]
  Adverse event: Anxiety: 1 (1.5) n (%)
  Adverse event: Blurred vision: 1 (1.5) n (%)
  Adverse event: Dizziness: 3 (4.5) n (%)
  Adverse event: Dysarthria: 1(1.5) n (%)
  Adverse event: Epistaxis: 1 (1.5) n (%)
  Adverse event: Headache: 2 (3.0) n (%)
  Adverse event: Hypotension: 1 (1.5) n (%)
  Adverse event: Muscle tightness: 1 (1.5) n (%)
  Adverse event: Nausea: 3 (4.5) n (%)
  Adverse event: Orthostatic hypotension: 7 (10.6) n (%)
  Adverse event: Orthostatic tachycardia: 13 (19.7) n (%)
  Adverse event: Somnolence: 22 (33.3) n (%)
  Adverse event: Vomiting: 3 (4.5) n (%)
[10]
  Adverse event: Anxiety: 0 n (%)
  Adverse event: Blurred vision: 0 n (%)
  Adverse event: Dizziness: 0 n (%)
  Adverse event: Dysarthria: 0 n (%)
  Adverse event: Epistaxis: 0 n (%)
  Adverse event: Headache: 0 n (%)
  Adverse event: Hypotension: 0 n (%)
  Adverse event: Muscle tightness: 0 n (%)
  Adverse event: Nausea: 0 n (%)
  Adverse event: Orthostatic hypotension: 0 n (%)
  Adverse event: Orthostatic tachycardia: 2 (18.2) n (%)
  Adverse event: Somnolence: 0 n (%)
  Adverse event: Vomiting: 0 n (%)
[11]
  Adverse event: Anxiety: 0 n (%)
  Adverse event: Blurred vision: 0 n (%)
  Adverse event: Dizziness: 0 n (%)
  Adverse event: Dysarthria: 0 n (%)
  Adverse event: Epistaxis: 0 n (%)
  Adverse event: Headache: 0 n (%)
  Adverse event: Hypotension: 0 n (%)
  Adverse event: Muscle tightness: 0 n (%)
  Adverse event: Nausea: 0 n (%)
  Adverse event: Orthostatic hypotension: 0 n (%)
  Adverse event: Orthostatic tachycardia: 0 n (%)
  Adverse event: Somnolence: 0 n (%)
  Adverse event: Vomiting: 0 n (%)
[12]
  Adverse event: Anxiety: 0 n (%)
  Adverse event: Blurred vision: 0 n (%)
  Adverse event: Dizziness: 1 (9.1) n (%)
  Adverse event: Dysarthria: 0 n (%)
  Adverse event: Epistaxis: 1 (9.1) n (%)
  Adverse event: Headache: 0 n (%)
  Adverse event: Hypotension: 0 n (%)
  Adverse event: Muscle tightness: 1 (9.1) n (%)
  Adverse event: Nausea: 2 (18.2) n (%)
  Adverse event: Orthostatic hypotension: 0 n (%)
  Adverse event: Orthostatic tachycardia: 1 (9.1) n (%)
